# Experimental data reported in patent US11427869B2, “T cell balance gene expression, compositions of matters and methods of use thereof” (THE BROAD INSTITUTE, INC., priority 2015, dated 2022).
# Test system: WT Th17 cells
# Assay: Nanostring nCounter Th17 codeset (312 genes), SFA- or control-treated WT Th17 cells
# Type: cell-based, mouse
# Conditions: WT Th17 cells + SFA
# Description: Applicants studied the contribution of lipid saturation to Th17 cell pathogenicity. […] Applicants analyzed the expression of a 312 gene signature of Th17 cell differentiation and function (Yosef et al., 2013) in SFA- or control-treated WT Th17 cells and in PUFA- or control-treated CD5L−/− Th17 cells differentiated with TGF-81+IL-6.
# T cell differentiation culture. Naïve CD4+CD44−CD62L+CD25− T cells or Effector memory CD4+CD44+CD62L− were sorted using BD FACSAria sorter and activated with plate-bound anti-CD3 and anti-CD28 antibodies (both at 2 μg/ml) in the presence of cytokines at a concentration of 2.5×10^5 cells/ml. For Th17 differentiation: 2 ng/ml of rhTGFβ1, 2 ng/ml of rhTGFβ3, 25 ng/ml rmIL-6, 20 ng/ml rmIL-18 (all from Miltenyi Biotec) and 20 ng/ml rmIL-23 (R & D systems) were used at various combinations as specified in figures. For Th1 differentiation, 20 ng/ml rmIL-12 (R & D systems); for Th2 differentiation 20 ng/ml rmIL-4 (Miltenyi Biotec); for iTreg differentiation, 2.5 ng/ml of rhTGFβ1 were used (Miltenyi Biotec). For differentiation experiments, cells were harvested at 48 hours. For restimulation experiments, cells were differentiated for 48 hours and resuspended in fresh media with no additional cytokines for 48-72 hours. Cells were re-stimulated with PMA/ionomycin for four hours before analysis for cytokines by intracellular cytokine staining. For experiments with exogenous fatty acid, fatty acids were purchased and resuspended first with serum-free media containing BSA prior being added to culture.
# Nanostring nCounter. Nanostring nCounter platform (NanoString Technologies) is used to measure the number of RNA transcripts in RNA samples (FIG. 16I, FIG. 18D). A codeset containing 312 signature genes of Th17 cell differentiation and function as well as 4 additional house-keeping genes were custom-made (Yosef et al., 2013) and used in these experiments. Experimental procedures as detailed by the manufacturer is strictly followed.
structure (smiles),measurement,value
"CCCCCCCCCCCCCCCC(=O)O [SFA, palmitic acid]","ATF2 expression (Nanostring), normalized to WT",1.18
same,"Abcg2 expression (Nanostring), normalized to WT",0.77
same,"Acvr2a expression (Nanostring), normalized to WT",0.66
same,"Ahr expression (Nanostring), normalized to WT",0.83
same,"Arl5a expression (Nanostring), normalized to WT",0.93
same,"Atf4 expression (Nanostring), normalized to WT",1.11
same,"BC021614 expression (Nanostring), normalized to WT",0.96
same,"Bcl2l11 expression (Nanostring), normalized to WT",0.82
same,"Bcl3 expression (Nanostring), normalized to WT",0.85
same,"Bcl11b expression (Nanostring), normalized to WT",0.82
same,"Bhlhe40 expression (Nanostring), normalized to WT",1.22
same,"Casp3 expression (Nanostring), normalized to WT",1.21
same,"Casp4 expression (Nanostring), normalized to WT",0.95
same,"Ccl1 expression (Nanostring), normalized to WT",0.58
same,"Ccl20 expression (Nanostring), normalized to WT",0.31
same,"Ccr4 expression (Nanostring), normalized to WT",0.61
same,"Ccr8 expression (Nanostring), normalized to WT",0.74
same,"Cd9 expression (Nanostring), normalized to WT",0.84
same,"Cd70 expression (Nanostring), normalized to WT",0.89
same,"Cd83 expression (Nanostring), normalized to WT",1.23
same,"Cd86 expression (Nanostring), normalized to WT",0.99
same,"Cd247 expression (Nanostring), normalized to WT",0.81
same,"Clcf1 expression (Nanostring), normalized to WT",0.74
same,"Csf2 expression (Nanostring), normalized to WT",0.97
same,"Ctla4 expression (Nanostring), normalized to WT",0.81
same,"Cxcl10 expression (Nanostring), normalized to WT",3.83
same,"Cxcr3 expression (Nanostring), normalized to WT",0.48
same,"Cxcr4 expression (Nanostring), normalized to WT",1.00
same,"Cxcr5 expression (Nanostring), normalized to WT",1.17
same,"EBF1 expression (Nanostring), normalized to WT",0.51
same,"Egr2 expression (Nanostring), normalized to WT",1.53
same,"Elk3 expression (Nanostring), normalized to WT",0.58
same,"Ercc5 expression (Nanostring), normalized to WT",0.90
same,"Etv6 expression (Nanostring), normalized to WT",0.94
same,"Faim3 expression (Nanostring), normalized to WT",0.61
same,"Fli1 expression (Nanostring), normalized to WT",0.84
same,"Flna expression (Nanostring), normalized to WT",0.65
same,"Foxo1 expression (Nanostring), normalized to WT",0.79
same,"Foxp1 expression (Nanostring), normalized to WT",0.77
same,"Foxp3 expression (Nanostring), normalized to WT",0.71
same,"Frmd4b expression (Nanostring), normalized to WT",1.05
same,"Fxd7 expression (Nanostring), normalized to WT",1.07
same,"Gap43 expression (Nanostring), normalized to WT",1.30
same,"Gem expression (Nanostring), normalized to WT",1.00
same,"Gimap5 expression (Nanostring), normalized to WT",1.05
same,"Gja1 expression (Nanostring), normalized to WT",0.94
same,"Gmfg expression (Nanostring), normalized to WT",0.62
same,"Grn expression (Nanostring), normalized to WT",0.78
same,"Gusb expression (Nanostring), normalized to WT",1.02
same,"Hip1r expression (Nanostring), normalized to WT",0.70
same,"IL-33 expression (Nanostring), normalized to WT",1.33
same,"Ifih1 expression (Nanostring), normalized to WT",0.87
same,"Ifng expression (Nanostring), normalized to WT",0.55
same,"Ikzf3 expression (Nanostring), normalized to WT",0.82
same,"Il1r1 expression (Nanostring), normalized to WT",0.61
same,"Il2ra expression (Nanostring), normalized to WT",0.71
same,"Il3 expression (Nanostring), normalized to WT",2.11
same,"Il4ra expression (Nanostring), normalized to WT",0.75
same,"Il6st expression (Nanostring), normalized to WT",0.87
same,"Il7r expression (Nanostring), normalized to WT",0.85
same,"Il10 expression (Nanostring), normalized to WT",0.12
same,"Il10ra expression (Nanostring), normalized to WT",0.71
same,"Il12rb1 expression (Nanostring), normalized to WT",0.39
same,"Il12rb2 expression (Nanostring), normalized to WT",0.88
same,"Il17a expression (Nanostring), normalized to WT",0.96
same,"Il17f expression (Nanostring), normalized to WT",0.90
same,"Il21 expression (Nanostring), normalized to WT",1.64
same,"Il23r expression (Nanostring), normalized to WT",1.12
same,"Il27ra expression (Nanostring), normalized to WT",0.70
same,"Inhba expression (Nanostring), normalized to WT",0.60
same,"Irf4 expression (Nanostring), normalized to WT",0.68
